Test results reported in patent US10336757B2, “Treatment of neurodegenerative diseases through inhibition of HSP90” (Sloan-Kettering Institute for Cancer Research, priority 2006, dated 2019).
Values joined by “and” are separate entries in the source; they are usually repeats but may differ in a detail not shown here. Equal values may be shown once.

Key:
P-glycoprotein = P-glycoprotein (Homo sapiens (Human), UniProt P08183); assay: P-glycoprotein substrate status; type: in vitro ADME; settings: purine scaffold therapeutic
[1] = tested on: mutant tau (HT7), p35, cdk5, Hsp70; assay: One dose PU-DZ8 in JNPL3 mice, S1 and P3 brain fractions by Western blot; type: in vivo, mouse; settings: for soluble mutant tau (HT7), S1 fraction, subcortical brain region: from 4 h, maintained up to 36 h
Procedure: JNPL3 female mice 6 months of age were treated IP with the Hsp90 inhibitor PU-DZ8 (75 mg/kg) and sacrificed various times as indicated in FIG. 9. Brains were divided in subcortical and cortical regions and processed using the Greenberg and Davies extraction protocol (77). Sarkosyl soluble fractions (S1) extracted from the subcortical region were analyzed by WB for p35, cdk5, mutant tau (HT7), Hsp90 and Hsp70. Protein bands were normalized to actin and plotted as relative change from untreated mice.
To investigate whether the human TauP301L present in the JNPL3 line of mice is a sensitive target for Hsp90 inhibition, animals were treated with the brain-barrier permeable Hsp90 inhibitor PU-DZ8. This agent is a higher-potency water soluble derivative of PU24FC1 (EC50JNPL3 brain Hsp90=70 nM). One dose of PU-DZ8 (75 mg/kg) was administered intraperitoneally (i.p.) to female mice of 2.5-4 months in age (n=32) and animals were sacrificed in the interval of 0 to 36 h. Both aggregate-free Tau (S1) and insoluble Tau (P3) fractions were prepared from the subcortical and cortical regions of these mice. Human Tau levels were assessed by immunobloting with a human specific anti-Tau antibody (HT-7). […] We next examined in a 4- to 6-month old mouse group (n=15) whether the stability of mTau as present in tau aggregates (P3 fraction) was additionally regulated by Hsp90.
For experiments designed to test the kinetics of mTau and p35 modulation by Hsp90 inhibitors, animals were administered intraperitoneally (i.p.) 75 mg/kg PU-DZ8 in PBS (6% DMSO). Mice were sacrificed by CO2 euthanasia at the indicated times following PU-DZ8 administration. Hemibrains were separated into cortico-limbic (cortex, amygdale and hippocampus) and subcortical (basal ganglia, diencephalon, brain stem and cerebellum) regions, quickly frozen on dry ice and stored at −80° C. and processed. In summary, each brain piece was weighed and homogenized in three volumes of Tris-buffered saline (TBS) containing protease and phosphatase inhibitors (25 mM Tris-HCl, pH 7.4, 150 mM NaCl, 1 mM EDTA, 1 mM EGTA, 5 mM sodium pyrophosphate, 30 mM β-glycerophosphate, 30 mM sodium fluoride, 1 mM phenylmethylsulfonyl fluoride (PMSF)). The homogenates were centrifuged at 27,000 g for 15 min at 4° C. Supernatants were collected as S1 fractions, and the pellets (P1) were re-homogenized in three volumes of salt/sucrose buffer (0.8 M NaCl, 10% sucrose, 10 mM Tris/HCl, pH 7.4, 1 mM EGTA, 1 mM PMSF) and centrifuged as above. The resulting pellets were discarded and the supernatants were incubated with sarkosyl (Sigma, St Louis, Mo., USA; 1% final concentration) for 1 h at 37° C. The sarkosyl mixtures were then centrifuged at 150,000 g for 30 min at 4° C. The supernatants (S2 fraction) were collected, and the pellets (P3) were resuspended in 50 μL 2% SDS in TBS and stored at −80° C. for western blotting. Proteins were analyzed by Western blot.

[2] = Assessment of PU-DZ8 brain levels by HPLC/MS/MS; type: in vivo, mouse; settings: 75 mg/kg i.p.
Procedure: Assessment of PU-DZ8 brain levels. Concentrations of compound were determined and quantitated by a MRM mode using a tandem high-performance liquid chromatography-mass/mass spectrometry (HPLC/MS/MS). A weighed piece of brain was rinsed with saline isotonic solution, dried with gauze and then homogenized in mobile phase (acetonitrile (ACN)/0.1% formic acid=1.2/2.8, v/v). Haloperidol was added as internal standard. PU-DZ8 was extracted in methylene chloride, the organic layer was separated, speedily dried under vacuum and reconstituted in the mobile phase. Compound analysis was performed in the API 4000™ LC/MS/MS (Applied Biosystems) which was coupled with a Shimadzu LC system and a 96-well plate autosampler. A Gemini C18 column (5μ particle size, 50×4.6 mm I.D.) was used for the LC separation. The analyte was eluted under an isocratic condition for 4 min at a flow rate of 0.4 mL/min
One dose of PU-DZ8 (75 mg/kg) was administered intraperitoneally (i.p.) to female mice of 2.5-4 months in age (n=32) and animals were sacrificed in the interval of 0 to 36 h. Both aggregate-free Tau (S1) and insoluble Tau (P3) fractions were prepared from the subcortical and cortical regions of these mice. PU-DZ8 levels in the brain reached 0.35 μg/g (˜700 nM) at 4 h, and the pharmacologically relevant dose was retained for at least 12 h post-administration (0.2 μg/g, ˜390 nM).

[3] = tested on: p35 and Tau phosphorylation on Ser202; assay: One dose PU-DZ8 in hTau mice, cortical S1 fractions; type: in vivo, mouse; settings: 75 mg/kg i.p.
Procedure: The majority of Tau pathology in hTau mice is located in the cortical brain region. These mice express six isoforms of non-mutant human Tau, but develop AD-like Tau-pathology. Heat-stable fractions (S1) prepared from cortical homogenates of these mice indicate an age-related accumulation of Tau phosphorylated at putative cdk5 sites. […] Aggregate-free Tau (S1) fractions were prepared from the cortical region of these mice and human Tau levels assessed by immunobloting with an antibody specific for 3-repeat domain Tau (RD3). By analogy to experiments on primary neuronal cultures and WT Tau transfected cells, the Hsp90 inhibitor had no effect on soluble WT Tau expression. […] The monoclonal antibody CP13 is commonly used to detect Tau pathology in both early and more advanced stages of Tau aggregate accumulation (41).

Chain of P-glycoprotein (P08183 whole entry): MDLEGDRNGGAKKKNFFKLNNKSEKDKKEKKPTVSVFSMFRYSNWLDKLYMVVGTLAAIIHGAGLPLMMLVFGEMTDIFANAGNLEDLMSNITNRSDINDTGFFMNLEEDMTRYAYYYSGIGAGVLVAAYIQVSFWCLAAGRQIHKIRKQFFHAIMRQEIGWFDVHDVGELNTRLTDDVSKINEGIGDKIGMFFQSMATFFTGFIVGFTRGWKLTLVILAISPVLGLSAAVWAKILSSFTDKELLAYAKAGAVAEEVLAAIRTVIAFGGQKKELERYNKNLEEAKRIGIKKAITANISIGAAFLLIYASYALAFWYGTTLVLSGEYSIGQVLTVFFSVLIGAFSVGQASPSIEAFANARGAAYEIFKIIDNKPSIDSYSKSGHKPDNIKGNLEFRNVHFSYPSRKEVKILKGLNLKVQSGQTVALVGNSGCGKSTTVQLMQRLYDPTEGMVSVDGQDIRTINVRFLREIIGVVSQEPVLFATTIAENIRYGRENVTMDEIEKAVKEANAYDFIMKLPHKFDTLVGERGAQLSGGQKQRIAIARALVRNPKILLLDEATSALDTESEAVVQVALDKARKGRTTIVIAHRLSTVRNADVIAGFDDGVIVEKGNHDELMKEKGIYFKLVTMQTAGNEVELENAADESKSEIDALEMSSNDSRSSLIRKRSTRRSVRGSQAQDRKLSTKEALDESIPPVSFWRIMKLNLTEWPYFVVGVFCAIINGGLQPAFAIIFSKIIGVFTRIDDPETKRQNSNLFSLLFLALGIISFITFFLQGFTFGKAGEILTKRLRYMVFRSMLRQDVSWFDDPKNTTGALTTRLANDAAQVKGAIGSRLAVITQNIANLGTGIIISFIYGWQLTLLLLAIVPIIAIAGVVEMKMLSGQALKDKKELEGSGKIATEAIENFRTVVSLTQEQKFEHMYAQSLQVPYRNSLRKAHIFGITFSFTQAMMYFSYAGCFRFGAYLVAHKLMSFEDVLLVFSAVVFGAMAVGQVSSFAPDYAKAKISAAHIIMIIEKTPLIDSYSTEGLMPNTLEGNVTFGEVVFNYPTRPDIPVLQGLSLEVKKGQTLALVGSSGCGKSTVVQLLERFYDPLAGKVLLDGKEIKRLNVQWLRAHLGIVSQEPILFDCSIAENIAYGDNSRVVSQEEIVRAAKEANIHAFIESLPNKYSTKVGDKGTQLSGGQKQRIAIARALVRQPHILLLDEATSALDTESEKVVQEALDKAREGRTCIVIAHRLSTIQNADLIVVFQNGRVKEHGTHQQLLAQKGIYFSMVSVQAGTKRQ

In the case of `CC(C)NCCCn1c(Cc2cc3c(cc2I)OCO3)nc2c(N)nc(F)nc21` [PU-DZ8], the P-gp substrate (P-glycoprotein) is reported as “not a substrate of P-pg”, the “chaperone levels (hsp70)” value ([1]; one dose 75 mg/kg IP) is reported as “hsp70 increase” and the cdk5 expression ([1]; one dose 75 mg/kg i.p.) is reported as “No significant changes”. The “expressions of Akt and Raf-1” value ([1]; one dose 75 mg/kg i.p.) was “not altered”, the “insoluble and hyperphosphorylated Tau (P3 fraction)” value ([1]; one dose 75 mg/kg i.p., 4- to 6-month old mice) was “significant reduction” and the “soluble mutant tau (HT7), S1 fraction, subcortical brain region” value ([1]; one dose 75 mg/kg i.p.) was “significant decrease”. For the same compound, the “soluble mutant tau (HT7), S1 fraction, subcortical brain region” value ([1]; one dose 75 mg/kg i.p., listed as DZ8) was “degradation of the mutant protein”, the “levels in the brain” value ([2]; 12 h post-administration) was 0.2 μg/g and ~390 nM and the “levels in the brain” value ([2]; at 4 h) was 0.35 μg/g and ~700 nM. For the same compound, the “Tau phosphorylation on Ser202 (antibody CP13)” value ([3]; 8 h post-administration) was “alleviation of Tau phosphorylation”, the p35 levels ([3]; 8 h post-administration) was “significant time-dependent reduction” and the “soluble WT Tau expression” value ([3]; cortical S1) was “no effect”.
